Laboratory results published in paper PMC5609913, “Structure based design, synthesis and activity studies of small hybrid molecules as HDAC and G9a dual inhibitors” (Oncotarget, 2017).

Key:
A549 cells = assay: Cell anti-proliferation / toxicity assay (CCK-8), A549; format: cell-based; settings: Homo sapiens
Method: (§1) Cell anti-proliferation assays were performed to determine the toxicity of these inhibitors. […] These compounds were further evaluated against the control cell line HEK293 to test their toxicity with a non-cancerous cell line.
(§2) And then the cells were exposed to the different inhibitors with various concentrations for 72 h. […] EC50s were calculated using GraphPad Prizm statistical package with sigmoidal variable slope dose response curve fit.

HEK293 cells = assay: Cell anti-proliferation / toxicity assay (CCK-8), HEK293 normal cell line; format: cell-based; settings: Homo sapiens, Table 6, 72 h
Method: as §1, §2

HDAC [1] = assay: Homogeneous cellular histone deacetylase assay, Hela; format: cell-based, human
Method: (§3) The enzymatic activity of HDAC was measured in intact cells using the homogeneous cellular assay method. A cell-permeable peptide Boc-K(Ac)-AMC used as the HDAC substrate, after deacetylation it is cleaved by trypsin to release the fluorescent 7-amino-4-methylcoumarin (AMC) and further quantified.
(§4) The manual assay was developed by Thomas's group. […] After 24 h, 9 μl inhibitors with different concentration were added to the HeLa cells and incubation was continued for 3 h under cell culture conditions. After this treatment period, 10 μl of a 2 mM stock solution of the substrate Boc-K(Ac)-AMC was added into the 96 well plates with Hela cells and inhibitors. […] A549 and K562 cell lines used the same method, respectively. IC50s were calculated using GraphPad Prizm statistical package with sigmoidal variable slope dose response curve fit.

HDAC [2] = assay: Homogeneous cellular histone deacetylase assay, A549; format: cell-based, human; settings: Supplementary Table 2; NA = not active up to highest concentration tested (100 μM); >100 = IC50 not reached at 100 μM
Method: as §3, §4

[3] = Table 6, 72 h, >100 = not reached at highest tested concentration (100 μM)
[4] = Table 3, Boc-K(Ac)-AMC substrate, intact Hela cells, read-out: Hela IC50
[5] = Supplementary Table 2, NA = not active up to highest concentration tested (100 μM), >100 = IC50 not reached at 100 μM, read-out: IC50-HDAC Hela

SMILES	IC50 (HDAC [2]) [µM]	IC50 (HDAC [1]; [5]) [µM]	also measured
COc1ccc2c(NC3CCN(Cc4ccccc4)CC3)nc(NCCNC(=O)CCCCCCC(=O)NO)nc2c1 [Compound 13, N1-(2-((4-((1-benzylpiperidin-4-yl)amino)-7-methoxyquinazolin-2-yl)amino)ethyl)-N8-hydroxyoctanediamide]	> 100	–	EC50 (A549 cells; [3]): > 100 µM; EC50 (HEK293 cells): 57 ± 1.12 µM; IC50 (HDAC [1]; [4]): 15.3 ± 0.79 µM
COc1ccc2c(NC3CCN(Cc4ccccc4)CC3)nc(NCCNC(=O)CCCCCC(=O)NO)nc2c1 [Compound 14, N1-(2-((4-((1-benzylpiperidin-4-yl)amino)-7-methoxyquinazolin-2-yl)amino)ethyl)-N7-hydroxyheptanediamide]	> 100	–	EC50 (A549 cells; [3]): 36.2 ± 1.76 µM; EC50 (HEK293 cells): 19.95 ± 0.19 µM; IC50 (HDAC [1]; [4]): 13.8 ± 1.22 µM
COc1cc2nc(N3CCCN(C)CC3)nc(NC3CCN(C(=O)CCCCCC(=O)NO)CC3)c2cc1OC [Compound 20, 7-(4-((6,7-dimethoxy-2-(4-methyl-1,4-diazepan-1-yl)quinazolin-4-yl)amino)piperidin-1-yl)-N-hydroxy-7-oxoheptanamide]	> 100	> 100	–
COc1cc2nc(N3CCCN(C)CC3)nc(NC3CCN(C(=O)CCCCCCC(=O)NO)CC3)c2cc1OC [Compound 19, 8-(4-((6,7-dimethoxy-2-(4-methyl-1,4-diazepan-1-yl)quinazolin-4-yl)amino)piperidin-1-yl)-N-hydroxy-8-oxooctanamide]	> 100	> 100	–
COc1cc2nc(NCCNC(=O)CCCCCC(=O)NO)nc(NC3CCN(Cc4ccccc4)CC3)c2cc1OC [Compound 5b, N1-(2-((4-((1-benzylpiperidin-4-yl)amino)-6,7-dimethoxyquinazolin-2-yl)amino)ethyl)-N7-hydroxyheptanediamide]	–	–	HDAC inhibition (in words) (HDAC [1]; candidates tested in both Hela and K562 cell lines, compared with Compound 14): did not show decent inhibition of HDAC
COc1ccc2c(NC3CCN(Cc4ccccc4)CC3)nc(NCCNC(=O)CCCCC(=O)NO)nc2c1 [Compound 15, N1-(2-((4-((1-benzylpiperidin-4-yl)amino)-7-methoxyquinazolin-2-yl)amino)ethyl)-N6-hydroxyadipamide]	> 100	> 100	–
COc1ccc2c(NC3CCN(Cc4ccccc4)CC3)nc(NCCNC(=O)CCCC(=O)NO)nc2c1 [Compound 16, N1-(2-((4-((1-benzylpiperidin-4-yl)amino)-7-methoxyquinazolin-2-yl)amino)ethyl)-N5-hydroxyglutaramide]	> 100	> 100	EC50 (A549 cells; Supplementary Table 4, 72 h, NA = not active up to highest concentration tested (100 μM)): > 100 µM
COc1ccc2c(NCCNC(=O)CCCCCC(=O)NO)nc(N3CCCN(C)CC3)nc2c1 [Compound 22, N1-hydroxy-N7-(2-((7-methoxy-2-(4-methyl-1,4-diazepan-1-yl)quinazolin-4-yl)amino)ethyl)heptanediamide]	> 100	> 100	–

The next lines start with results.

IC50 (HDAC [2]) [µM]	IC50 (HDAC [1]; [5]) [µM]	SMILES	also measured
> 100	> 100	COc1ccc2c(NC3CCN(C)CC3)nc(NCCNC(=O)CCCCC(=O)NO)nc2c1 [Compound 15a, N1-hydroxy-N6-(2-((7-methoxy-4-((1-methylpiperidin-4-yl)amino)quinazolin-2-yl)amino)ethyl)adipamide]	–
> 100	> 100	COc1ccc2c(NC3CCN(C)CC3)nc(NCCNC(=O)CCCC(=O)NO)nc2c1 [Compound 16a, N1-hydroxy-N5-(2-((7-methoxy-4-((1-methylpiperidin-4-yl)amino)quinazolin-2-yl)amino)ethyl)glutaramide]	–
